Experiments:
[1] = tested on: endothelial cells (HUVE cells); assay: Effect on growth of endothelial cells (HUVE cells, basic FGF, MTT method); format: cell-based; conditions: Homo sapiens, Endothelial cell, 72 h, basic FGF 2 ng/ml, 3 days, read-out: IC50 (concentration inhibiting growth of endotherial cells by 50%)
Protocol: This experiment was conducted by using endothelial cells (HUVE cells) obtained from human umbilical vein. […] After 24 hours, human recombinant basic FGF (endotherial cell growth factor) was added thereto in the final concentration of 2 ng/ml and a test compound was further added, followed by cultivation for 3 days.

rat kidneys = assay: Effect on acute renal failure caused by ischemia and following reperfusion in rat kidneys; format: in vivo; conditions: 1 hour before occlusion, 20 hours after reperfusion
Protocol: Effect on acute renal failure caused by ischemia and following reperfusion in rat kidneys.
SD rats (male) of 6 to 7 weeks old were anesthetized with pentobarbital sodium (50 mg/kg, i.p.) and bilateral renal arteries were ligated. After 45 minutes, a clip was removed to reperfuse. After 20 hours, blood was collected from abdominal aorta under anesthesia with pentobarbital sodium and blood urea nitrogen (BUN) was measured. Medicines (compounds obtained in the above Examples) were orally administered (5 ml/kg) 1 hour before occulusion of renal artery.

rat heart = assay: Effect on incidence of arrhythmia caused by ischemia and following reperfusion in rat heart; format: in vivo; conditions: 1 hour before ligation, until 10 minutes after reperfusion
Protocol: Effect on incidence of arrhythmia caused by ischemia and following reperfusion in rat heart
Male Sprague Dawley rats (Japan Clea) of 9 to 10 weeks old were anesthetized with 50 mg/kg (i.p.) of sodium pentobarbital. The heart was exposed by a left thoractomy under artificial ventilation with room air and silk suture was placed under the main left coronary artery (LAD) to ligate for 5 minutes. Then, the ligature was released again for reperfusion. The incidence of ventricular tachycardia (VT), ventricular fibrillation (VF) and cardiac arrest (CA) caused until 10 minutes after reperfusion were noted. Medicines (compounds obtained in the above Examples) were orally administered (5 ml/kg) at 1 hour before tightening the ligature. The effect of medicines were estimated in comparison with the frequency of a group received a vehicle according to X^2 -test.

calmodulin = calmodulin (Bos taurus, UniProt P62157); assay: Calmodulin inhibitory activity (calmodulin-activated cyclic nucleotide phosphodiesterase, [3H]cGMP); format: biochemical; conditions: 10^-5 M
[2] = tested on: spontaneous hypertensive rat (SHR); assay: Hypotensive activity in spontaneous hypertensive rat (SHR), Plethysmograph method; format: in vivo; conditions: SHR male rats, oral, 100 mg/kg; for Change of blood pressure, 1 hour: 1 hour after administration; for Change of blood pressure, 5 hours: 5 hours after administration
Protocol: Hypotensive activity in spontaneous hypertensive rat (SHR)
SHR male rats of twenty weeks old were used. They were warmed in an incubator at 37° C. for 5 minutes and the measurement was conducted according to Plethysmograph method. Medicines (the compounds in the above Examples) were suspended in gum arabic-water and were orally administered in an amount of 2.5 ml/kg. Blood pressure was measured before administration of medicines, at 1 hour and at 5 hours after administration, and the change of the value from that before administration was determined, respectively.

[3] = tested on: experimental ischemic disorders; conditions: in vivo; cited from earlier work

SMILES	inhibition at 10 µM (calmodulin)	CA (Frequency), cardiac arrest (rat heart; 30 mg/kg oral)	VF (Frequency), ventricular fibrillation (rat heart; 30 mg/kg oral)	VT (Frequency), ventricular tachycardia (rat heart; 30 mg/kg oral)	Change of blood pressure, 1 hour [2]	Change of blood pressure, 5 hours [2]	other results
CC(C)OC(=O)NCCSc1cccc2nccn12 [21']	–	–	–	–	–	–	IC50 [1]: 5 µM
CS(=O)(=O)NCCSc1cccc2nccn12 [Compound 1, 5-[2-(methylsulfonylamino)ethylthio]imidazo[1,2-a]pyridine]	94%	0/4	1/4	1/4	-11.2 mmHg	-11.5 mmHg	Blood urea nitrogen (rat kidneys; 10 mg/kg oral): 83.3 ± 20.4 mg/dL; Blood urea nitrogen (rat kidneys; 30 mg/kg oral): 71.1 ± 11.4 mg/dL; Blood urea nitrogen (rat kidneys; 50 mg/kg oral): 65.6 ± 5.1 mg/dL; CA (Frequency), cardiac arrest (rat heart; 10 mg/kg oral): 1/4; VF (Frequency), ventricular fibrillation (rat heart; 10 mg/kg oral): 2/4; VT (Frequency), ventricular tachycardia (rat heart; 10 mg/kg oral): 2/4
O=S(=O)(NCCCCCOc1cccc2nccn12)C(F)(F)F [Compound 69, 5-[5-(Trifluoromethylsulfonylamino)pentyloxy]imidazo[1,2-a]pyridine]	57%	–	–	–	-7.0 mmHg	-32.0 mmHg	–
CN(C)CCCN1c2ccccc2Sc2ccc(Cl)cc21 [chlorpromazine]	–	–	–	–	–	–	effect on experimental ischemic disorders (in words) [3]: effective for experimental ischemic disorders

Further lines, with some results ahead:

inhibition at 10 µM (calmodulin)	SMILES	CA (Frequency), cardiac arrest (rat heart; 30 mg/kg oral)	VF (Frequency), ventricular fibrillation (rat heart; 30 mg/kg oral)	VT (Frequency), ventricular tachycardia (rat heart; 30 mg/kg oral)	Change of blood pressure, 1 hour [2]	Change of blood pressure, 5 hours [2]	other results
72%	O=S(=O)(NCCCSc1cccc2nccn12)C(F)(F)F [Compound 28, 5-[3-(Trifluoromethylsulfonylamino)propylthio]imidazo[1,2-a]pyridine]	–	–	–	-13.5 mmHg	-43.0 mmHg	–
82%	CS(=O)(=O)NCCCOc1cccc2nccn12 [Compound 64, 5-[3-(methylsulfonylamino)propyloxy]imidazo[1,2-a]pyridine]	1/3	1/3	1/3	-31.0 mmHg	-27.0 mmHg	–
72%	O=S(=O)(NCCCCOc1cccc2nccn12)C(F)(F)F [Compound 67, 5-[4-(Trifluoromethylsulfonylamino)butyloxy]imidazo[1,2-a]pyridine]	–	–	–	-15.0 mmHg	-22.0 mmHg	–
57%	O=C(NCc1ccncc1)OCCSc1cccc2nccn12 [Compound 127, 5-[2-[4-(Pyridyl)methylcarbamoyloxy]ethylthio]imidazo[1,2-a]pyridine]	0/3	1/3	1/3	–	–	–

Reference: patent US5244908A, “Imidazopyridine derivatives and their pharmaceutical use” (Takeda Chemical Industries, Ltd., priority 1990, dated 1993)
